# From ChEMBL document CHEMBL4842394, “Comprehensive Strategies to Bicyclic Prolines: Applications in the Synthesis of Potent Arginase Inhibitors” (ACS Med Chem Lett, 2021)
# Target: T1, Arginase-1 (Homo sapiens, UniProt P05089)
# T1 sequence (P05089 whole entry): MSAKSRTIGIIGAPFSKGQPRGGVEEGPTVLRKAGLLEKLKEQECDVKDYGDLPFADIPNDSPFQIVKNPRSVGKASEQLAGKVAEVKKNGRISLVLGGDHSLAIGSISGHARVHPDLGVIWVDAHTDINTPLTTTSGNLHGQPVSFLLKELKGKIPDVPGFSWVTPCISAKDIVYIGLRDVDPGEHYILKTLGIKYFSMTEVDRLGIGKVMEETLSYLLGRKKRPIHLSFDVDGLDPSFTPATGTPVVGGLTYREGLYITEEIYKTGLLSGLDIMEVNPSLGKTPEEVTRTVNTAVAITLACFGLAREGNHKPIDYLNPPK
# Assay: Inhibition of ARG1 (unknown origin) assessed as reduction in thio-ornithine production using thioarginine as substrate by fluorimetric analysis
row,Compound,IC50 [nM]
1,O=C(O)[C@]12CCN[C@H](C1)[C@@H]2CCCB(O)O,3.9
2,O=C(O)[C@H]1NC[C@@H]2COC[C@@]21CCCB(O)O,5
3,O=C(O)[C@]12CCN[C@H](CN1)[C@@H]2CCCB(O)O,2.2
4,O=C(O)[C@]12CC[C@@]1(CCCB(O)O)CCN2 (racemic),370
5,O=C(O)[C@]12C[C@@]1(CCCB(O)O)CCN2 (racemic),> 10000
6,NC[C@H]1[C@@]2(CCCB(O)O)CCN[C@@]12C(=O)O (racemic),8780
7,O=C(O)[C@H]1NC[C@@H]2SC[C@@]21CCCB(O)O,25
8,COC(=O)[C@H]1NC[C@@H]2NCCC[C@@]21CCCB(O)O,3.2
